Reference: the supplement of paper PMC10307832

Key:
Assay in all cases: relative viability (nuclei count vs DMSO), 5 days (fraction); higher = more cells survive
[1] = compound: O=C(c1cc(Cc2n[nH]c(=O)c3ccccc23)ccc1F)N1CCN(C(=O)C2CC2)CC1 [Olaparib] + C[C@]1(O)C[C@@H](c2nc(-c3ccc4ccc(-c5ccccc5)nc4c3)c3c(N)nccn32)C1 [Linsitinib] (partner 1 µM)
How it was run: (§1)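 After 5 days of treatment, lung cancer cells in 1536-well plates were fixed and stained in a single step (final 0.05% Triton X-100, 1% formaldehyde, 1 ug/ml Hoechst) and their nuclei counted on 4× images. Treatment had been applied by pin tool the day after seeding as one drug alone or as a fixed anchor-drug dose with five library-drug doses (not always all listed) in √10 steps. Relative viability is the nuclei count of treated wells divided by that of vehicle wells, and values are medians of duplicate plates.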

[2] = compound: CC(C)C[C@H](NC(=O)[C@H](CCc1ccccc1)NC(=O)CN1CCOCC1)C(=O)N[C@@H](Cc1ccccc1)C(=O)N[C@@H](CC(C)C)C(=O)[C@@]1(C)CO1 [Carfilzomib] + CC1(C)CCC(c2ccc(Cl)cc2)=C(CN2CCN(c3ccc(C(=O)NS(=O)(=O)c4ccc(N[C@H](CCN5CCOCC5)CSc5ccccc5)c(S(=O)(=O)C(F)(F)F)c4)cc3)CC2)C1 [Navitoclax] (partner 0.5 µM)
How it was run: as §1

[3] = compound: O=C(c1cc(Cc2n[nH]c(=O)c3ccccc23)ccc1F)N1CCN(C(=O)C2CC2)CC1 [Olaparib] + CC(C)C[C@H](NC(=O)[C@H](Cc1ccccc1)NC(=O)c1cnccn1)B(O)O [Bortezomib] (partner 0.002 µM)
How it was run: as §1

[4] = compound: C[C@@H](Oc1cc(-c2cnn(C3CCNCC3)c2)cnc1N)c1c(Cl)ccc(F)c1Cl [Crizotinib] + COc1cccc2cc(-c3nc([C@H]4CC[C@H](C(=O)O)CC4)n4ncnc(N)c34)[nH]c12 [OSI-027] (partner 0.5 µM)
How it was run: as §1

Row | Cell Line | relative viability ([1]; first compound 0.08 µM) | relative viability ([1]; first compound 0.253 µM) | relative viability ([1]; first compound 2.53 µM) | relative viability ([1]; first compound 8 µM) | relative viability ([2]; first compound 0.001 µM) | relative viability ([2]; first compound 0.003162 µM) | relative viability ([2]; first compound 0.01 µM) | relative viability ([2]; first compound 0.03162 µM) | relative viability ([2]; first compound 0.1 µM) | relative viability ([3]; first compound 0.08 µM) | relative viability ([3]; first compound 0.253 µM) | relative viability ([3]; first compound 2.53 µM) | relative viability ([3]; first compound 8 µM) | relative viability ([4]; first compound 0.01 µM) | relative viability ([4]; first compound 0.03162 µM) | relative viability ([4]; first compound 0.1 µM) | relative viability ([4]; first compound 0.3162 µM) | relative viability ([4]; first compound 1 µM)
1 | EBC-1 | 1.07 | 0.824 | 0.848 | 0.751 | 0.415 | 0.288 | 0.184 | 0.13 | 0.139 | 0.654 | 0.541 | 0.523 | 0.472 | – | – | – | – | –
2 | EKVX | 1.38 | 0.91 | 1.01 | 1.06 | 0.992 | 1 | 1.21 | 0.427 | 0.346 | 1.42 | 0.987 | 0.995 | 0.994 | 0.744 | 0.737 | 0.756 | 0.651 | 0.744
3 | EMC-BAC-2 | 0.945 | 0.792 | 0.85 | 0.621 | 1.15 | 1.21 | 1.22 | 1.12 | 0.527 | 1.09 | 1.04 | 1.07 | 0.967 | 0.431 | 0.391 | 0.342 | 0.295 | 0.36
4 | EPLC-272H | 1.25 | 1.11 | 1.21 | 1.03 | 1.07 | 1.15 | 0.839 | 0.09 | 0.0751 | 1.1 | 0.819 | 0.965 | 0.848 | 0.312 | 0.253 | 0.287 | 0.252 | 0.259
5 | H3255 | 1.04 | 0.912 | 0.932 | 0.825 | 0.676 | 0.63 | 0.663 | 0.37 | 0.151 | 0.935 | 0.728 | 0.703 | 0.728 | 0.6 | 0.652 | 0.633 | 0.509 | 0.61
6 | HARA | 1.07 | 0.829 | 1.04 | 0.792 | 1.1 | 1.14 | 1.21 | 0.0941 | 0.0841 | 1.25 | 1.04 | 1.06 | 0.769 | 0.543 | 0.504 | 0.46 | – | 0.432
7 | HCC-15 | 0.927 | 0.828 | 0.836 | 0.768 | 0.667 | 0.728 | 0.762 | 0.423 | 0.148 | 1.18 | 0.984 | 1.03 | 0.9 | 0.626 | 0.754 | 0.633 | – | 0.568
8 | HCC-44 | 0.654 | 0.562 | 0.713 | 0.682 | 0.94 | 1.01 | 1 | 0.829 | 0.261 | 0.915 | 0.873 | 0.952 | 0.893 | 0.409 | 0.546 | 0.611 | 0.54 | 0.371
9 | HCC-78 | 0.732 | 0.456 | 0.533 | 0.473 | 0.546 | 0.925 | 0.748 | 0.503 | 0.179 | 0.489 | 0.545 | 0.496 | 0.537 | – | 0.365 | 0.29 | 0.307 | 0.34
